In the supplement of paper PMC12137928:
Where a name gives a salt, the structure may show the parent alone.

Tested on: HCT116
Details: 72 h
Method in brief: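 After seeding at 250 cells per well in 1536-well plates, HCT116 cells were given 5 h to attach. CellTiter-Glo luminescence, scaled to 0% for vehicle and -100% for positive control, was pattern-corrected. Fitting with a four-parameter Hill model produced IC50 and maximal efficacy.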

Compound	IC50 cell viability (ICRF193 0 nM) [µM]	IC50 cell viability (ICRF193 200 nM) [µM]
C[Si](C)(C)O[Si](C)(C)O[Si](C)(C)C [Trisiloxane, octamethyl-]	> 45.8	> 45.8
CC(C(=O)O)c1ccc2c(c1)[nH]c1ccc(Cl)cc12 (centres undefined) [Carprofen]	> 45.8	> 45.8
CC(C)(C(=O)c1cccnc1)c1cccnc1 [Metyrapone]	> 45.8	> 45.8
CCOC(=O)c1c(N)sc2c1CCN(Cc1ccccc1)C2 [Tinoridine]	> 45.8	> 45.8
C1N2CN3CN1CN(C2)C3 [Methenamine]	> 45.8	> 45.8
N[C@H](Cc1c[nH]c2ccccc12)C(=O)O [d-Tryptophan]	> 45.8	> 45.8
Cc1c[nH]c2ccccc12 [3-Methylindole]	> 45.8	> 45.8
CC(C)(C)NC[C@H](O)COc1cccc2c1CCCC2=O [Levobunolol hydrochloride]	> 45.8	> 45.8
C[C@@H]1C[C@H]2[C@@H]3C[C@H](F)C4=CC(=O)C=C[C@]4(C)[C@@]3(F)[C@@H](O)C[C@]2(C)[C@@]1(O)C(=O)COC(=O)C(C)(C)C [Flumethasone pivalate]	> 45.8	> 45.8
CC(C(=O)O)c1ccc(/C=C2\CCCCC2=O)cc1 (centres undefined) [Pelubiprofen]	> 45.8	> 45.8
NCCC(O)(P(=O)(O)O)P(=O)(O)O [Pamidronic acid]	> 45.8	> 45.8
O=C(CCCN1CC=C(n2c(=O)[nH]c3ccccc32)CC1)c1ccc(F)cc1 [Droperidol]	> 45.8	> 45.8
C[C@](N)(Cc1ccc(O)c(O)c1)C(=O)O [Methyldopa]	> 45.8	> 45.8
C[C@]12CC[C@@H]3c4ccc(O)cc4C[C@@H](CCCCCCCCC[S+]([O-])CCCC(F)(F)C(F)(F)F)[C@H]3[C@@H]1CC[C@@H]2O (some centres undefined) [Fulvestrant]	> 45.8	> 45.8
Cc1c(N(C)CS(=O)(=O)O)c(=O)n(-c2ccccc2)n1C [Dipyrone]	> 45.8	> 45.8
O=C(O[C@@H]1C[C@@H]2C[C@H]3C[C@H](C1)N2CC3=O)c1c[nH]c2ccccc12 [Dolasetron mesylate hydrate]	> 45.8	> 45.8
C[C@@H]1C[C@H]2[C@@H]3C[C@H](F)C4=CC(=O)C=C[C@]4(C)[C@@]3(Cl)[C@@H](O)C[C@]2(C)[C@H]1C(=O)COC(=O)C(C)(C)C [Clocortolone pivalate]	> 45.8	> 45.8
CCOC(=O)CCC(=O)O[C@H]1[C@H](O[C@@H]2[C@@H](C)[C@H](O[C@H]3C[C@@](C)(OC)[C@@H](O)[C@H](C)O3)[C@@H](C)C(=O)O[C@H](CC)[C@@](C)(O)[C@H](O)[C@@H](C)C(=O)[C@H](C)C[C@@]2(C)O)O[C@H](C)C[C@@H]1N(C)C [ERYTHROMYCIN ETHYLSUCCINATE]	> 45.8	> 45.8
COc1ncnc(NS(=O)(=O)c2ccc(N)cc2)c1OC [Sulfadoxine]	> 45.8	> 45.8
CO[C@@]12[C@H](COC(N)=O)C3=C(C(=O)C(C)=C(N)C3=O)N1C[C@@H]1N[C@@H]12 [Mitomycin C]	> 45.8	> 45.8
Cn1c(CCCC(=O)O)nc2cc(N(CCCl)CCCl)ccc21 [Bendamustine]	> 45.8	> 45.8
NC(=O)[C@H]1O[C@@H](O)[C@H](O)[C@@H](O)[C@@H]1O [Glucuronamide]	> 45.8	> 45.8
